Values of other authors as cited in patent publication US12102751B2, “Positive pressure inhaler for delivery of inhalable medication and methods for use” (priority 2019, dated 2024).

Experiments:
[1] = after vaping

| SMILES | time after which plasma concentration falls [1] | time at which plasma concentration reaches maximum strength [1] | solubility in most organic solvents (most organic solvents, specifically lipids and alcohols) | solubility in water (water) |
| --- | --- | --- | --- | --- |
| C=C(C)[C@@H]1CCC(C)=C[C@H]1c1c(O)cc(CCCCC)cc1O [CBD, Cannabidiol] | 22 min | 6 min | – | – |
| CCCCCc1cc(O)c2c(c1)OC(C)(C)[C@@H]1CCC(C)=C[C@@H]21 [THC, tetrahydrocannabinol] | 22 min | 6 min | good | very low |
